Values after ≈ are worked out from the molar mass of the structure shown.
How the values were obtained:
A549 [1] = assay: Cytotoxicity against human A549 cells; assay type: functional, cell-based; settings: Homo sapiens, A549
T98G = assay: Cytotoxicity against human T98G cells; assay type: functional, cell-based
SK-BR-3 = assay: Cytotoxicity against human SKBR3 cells; assay type: functional, cell-based
PSN1 = assay: Cytotoxicity against human PSN1 cells; assay type: functional, cell-based
[2] = Cytotoxicity against human H116 cells; assay type: functional, cell-based
HT-29 = assay: Cytotoxicity against human HT29 cells; assay type: functional, cell-based; settings: Homo sapiens, HT-29
MDA-MB-231 = assay: Cytotoxicity against human MDA-MB-231 cells; assay type: functional, cell-based
MOLT-4 = assay: Cytotoxicity against human MOLT4 cells by soft agar assay; assay type: functional
786-0 = assay: Cytotoxicity against human renal 7860 cells by soft agar assay; assay type: functional
A549 [3] = assay: Cytotoxicity against human A549 cells by soft agar assay; assay type: functional
KM12 = assay: Cytotoxicity against human KM12 cells by soft agar assay; assay type: functional
BT-549 = assay: Cytotoxicity against human BT549 cells by soft agar assay; assay type: functional
[4] = Cytotoxicity against human IGRO cells by soft agar assay; assay type: functional
Candida albicans = assay: Antifungal activity against Candida albicans; assay type: functional
WEHI-164 = assay: Cytotoxicity against mouse WEHI164 cells; assay type: functional, cell-based
[5] = Cytotoxicity against human NCI60 cells; assay type: functional
HL-60 = assay: Cytotoxicity against human HL60 cells by soft agar assay; assay type: functional
[6] = Cytotoxicity against human LOX cells by soft agar assay; assay type: functional
P388 [7] = assay: Cytotoxicity against mouse P388 cells; assay type: functional, cell-based; settings: Mus musculus, P388
[8] = Cytotoxicity against human […] cells; assay type: functional; settings: read-out: ED50 (the source's name)
KB = assay: Cytotoxicity against human KB cells; assay type: functional, cell-based; settings: Homo sapiens, KB; read-out: ED50 (the source's name)
Plasmodium falciparum = assay: Antimalarial activity against Plasmodium falciparum W2; assay type: functional, organism-based
[9] = Cytotoxicity against human MEL28 cells; settings: SK-MEL-28
DU-145 = assay: Cytotoxicity against human DU145 cells; assay type: functional, cell-based; settings: Homo sapiens, DU-145
HCT-116 = assay: Cytotoxicity against human HCT116 cells; assay type: functional, cell-based
P388 [10] = assay: Cytotoxicity against mouse P388 cells at 0.05 ug/ml; assay type: functional
[11] = read-out: ED50 (the source's name)

CC(C)(O)C1=C[C@@]23CCC4C(C)(C)CCC[C@]4(C)[C@H]2C[C@H]1OO3 (some centres undefined)
IC50 (A549 [1]): > 5 µg/mL | IC50 (T98G): > 5 µg/mL | IC50 (SK-BR-3): > 5 µg/mL | IC50 (PSN1): > 5 µg/mL | IC50 [2]: > 5 µg/mL

CCCC(CC)CC(C)C[C@]1(CC)C[C@H](CC)[C@H](CC(=O)OC)OO1 (some centres undefined)
IC50 (A549 [1]): 14000 nM | IC50 (HT-29): 12300 nM | IC50 (MDA-MB-231): 24400 nM

C[C@@H]1C[C@@H]([C@H](O)CC2CC(=O)NC(=O)C2)C(=O)[C@@H](C)C1 [CYCLOHEXIMIDE]
IC50 (A549 [1]): 0.1 µg/mL | IC50 (T98G): 2.5 µg/mL (≈ 8.89 µM) | IC50 (SK-BR-3): 0.05 µg/mL (≈ 0.178 µM) | IC50 (PSN1): 0.01 µg/mL (≈ 0.0355 µM) | IC50 [2]: 0.1 µg/mL (≈ 0.355 µM)

C=C1CCCC(C)(C)C1CC[C@]1(C)CC[C@@H]([C@@H](C)C(=O)O)OO1 (some centres undefined) [EPINUAPAPUIN B]
GI50 (MOLT-4): > 5000 nM | GI50 (786-0): > 5000 nM | GI50 (A549 [3]): > 5000 nM | GI50 (KM12): > 5000 nM | GI50 (BT-549): > 5000 nM | GI50 [4]: 1730 nM

CC(CCCCCC/C=C\C=C\c1ccccc1)CC1(C)CC(C)(CC(=O)O)OO1 (single isomer, unassigned)
MIC (Candida albicans): 1.6 µg/mL (≈ 3.86 µM)

CC/C=C/C(CC)C/C(C)=C/[C@]1(CC)C[C@@H](CC)[C@H](CC(=O)OC)OO1 (some centres undefined)
IC50 (WEHI-164): 8.2 µg/mL (≈ 22.4 µM)

C=C1CCC[C@H]2[C@](C)(CC[C@]3(C)CC[C@H]([C@@H](C)C(=O)O)OO3)[C@@H](C)CC[C@]12C [SIGMOSCEPTRELLIN A]
GI50 (BT-549): 960 nM | GI50 [4]: 120 nM

CC1(C)CC(C23C=CC(CO)(CCC2)OO3)CCC1Br (centres undefined) [MAJAPOLENES A]
GI50 [5]: 400 nM | TGI [5]: 900 nM | CC50 ([5]; read-out: LC50 (the source's name)): 2800 nM

C=C1CCC[C@@H]2[C@@H](CC[C@@]3(C)CC[C@H]([C@H](C)C(=O)O)OO3)[C@H](C)CC[C@@]12C [SIGMOSCEPTRELLIN B]
GI50 (HL-60): 140 nM | GI50 (MOLT-4): 840 nM | GI50 (786-0): 500 nM | GI50 (A549 [3]): 940 nM | GI50 (KM12): 950 nM | GI50 (BT-549): 960 nM | GI50 [4]: 100 nM | GI50 [6]: 160 nM

C=C(C)[C@@H](CC)CC[C@@H](C)[C@H]1CC[C@H]2[C@@H]3C=C[C@@]4(OO)C[C@@H](O)CC[C@]4(C)[C@H]3CC[C@@H]21
EC50 (A549 [1]; [11]): 1.1 µg/mL (≈ 2.55 µM) | EC50 (P388 [7]; [11]): 0.5 µg/mL (≈ 1.16 µM) | EC50 [8]: 0.9 µg/mL (≈ 2.09 µM) | EC50 (KB): 1 µg/mL (≈ 2.32 µM)

CC(C)(OO)C1=C[C@@]23CCC4C(C)(C)CCC[C@]4(C)[C@H]2C[C@H]1OO3 (some centres undefined)
IC50 (A549 [1]): 5 µg/mL | IC50 (T98G): > 5 µg/mL | IC50 (SK-BR-3): > 5 µg/mL | IC50 (PSN1): 5 µg/mL (≈ 14.9 µM) | IC50 [2]: 2.5 µg/mL (≈ 7.43 µM)

CCCCC(CC)CC(C)C[C@]1(CC)C[C@H](CC)[C@H](CC(=O)O)OO1 (some centres undefined) [PLAKORITIDE Q]
IC50 (A549 [1]): 3600 nM | IC50 (HT-29): 3900 nM | IC50 (MDA-MB-231): 9000 nM

CCC(=O)/C=C/[C@@]1(CC)C[C@H](CC)[C@H](CC(=O)OC)OO1 [PLAKORTOLIDE I(M)]
IC50 (Plasmodium falciparum): 0.57 µg/mL (≈ 1.91 µM)

C=CCCC/C=C/C=C\CCCCCCCC[C@H]1CC[C@H]([C@@H]2CC[C@@H](CC(=O)[O-])OO2)O1.[Na+] [STOLONOXIDE D]
IC50 [9]: 0.1 µg/mL | IC50 (A549 [1]): 0.1 µg/mL | IC50 (HT-29): 0.05 µg/mL | IC50 (DU-145): 0.1 µg/mL | IC50 (P388 [7]): 0.5 µg/mL

CC(CCCCCCCCc1ccccc1)CC(C)C[C@@]1(C)C[C@](C)(CC(=O)O)OO1 (some centres undefined) [EPIPLAKINIC ACID G]
IC50 (HCT-116): 160 nM

CCC/C=C/[C@]1(CC)C[C@H](CC)[C@H](CC(=O)O)OO1 [PLAKORTIDE L]
IC50 (Plasmodium falciparum): 0.57 µg/mL (≈ 2.11 µM)

C/C=C/C=C/CCCCCCCCC[C@]1(OC)C=C[C@H](CC(=O)OC)OO1
inhibition at 0.05 µg/mL (P388 [10]): 50%

C=C1CCCC(C)(C)C1CC[C@@]1(C)CC[C@H]([C@@H](C)C(=O)O)OO1 (some centres undefined) [NAPAPUIN B]
GI50 [4]: 630 nM | GI50 [6]: 250 nM

CC/C=C/C(CC)C/C(C)=C/[C@]1(CC)C[C@H](CC)[C@H](CC(=O)OC)OO1 (some centres undefined) [PLAKORTIDE H]
IC50 (WEHI-164): 7.1 µg/mL (≈ 19.4 µM)

CC(CCCCCCCCc1ccccc1)CC(C)C[C@]1(C)C[C@](C)(CC(=O)O)OO1 (some centres undefined) [EPIPLAKINIC ACID H]
IC50 (HCT-116): 390 nM

Source: ChEMBL document CHEMBL1149799, “Bioactive peroxides as potential therapeutic agents” (Eur J Med Chem, 2008)
